The source of these data is ChEMBL document CHEMBL1201862, “PubChem BioAssay data set” (2004).

Molecules are shown by their SMILES.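 Protocol summary: plate cells (96-well), add compound at 5 concentrations, incubate 48 h, interpolate endpoints linearly. GI50 is the concentration that inhibits growth by half.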 Calls of active or inactive are those of the source. No stated cut-off is given here; in the data, active = GI50 up to about 1.1 µM and inactive = higher.

Among the test systems are SF-539; UO-31; SK-MEL-28; M14; NCI-H23; KM12; 786-0; OVCAR-3; SNB-75; SK-OV-3; OVCAR-8; HT-29; ACHN; HOP-62; COLO 205; Malme-3M.
What all share (assay): NCI-60 cell line screen, 48 h

`NC(=O)C12C3C4C1C1C2C3C41C(N)=O` (centres undefined): the GI50 in the assay with SF-539, with UO-31, in the assay on SK-MEL-28, in the assay with M14, in the assay on NCI-H23 and with KM12 was > 100 µM (inactive) each time. The GI50 in the assay with 786-0, in the assay on OVCAR-3, with SNB-75, in the assay on SK-OV-3, in the assay on OVCAR-8 and in the assay on HT-29 was > 100 µM (inactive) each time. Besides, the GI50 with ACHN, in the assay on HOP-62 and in the assay with COLO 205 was > 100 µM (inactive) each time.
For the compound `C[Si](C)(C)/C=C\CCCN1C(=O)CCC1=O`, the GI50 with SF-539, in the assay on UO-31, in the assay on SK-MEL-28, with M14, with NCI-H23 and in the assay with KM12 was > 100 µM (inactive) in each case. Besides, the GI50 with 786-0 is > 100 µM (inactive); with OVCAR-3, > 100 µM (inactive); with SNB-75, 62.5 µM (inactive); with Malme-3M it was > 100 µM (inactive); in the assay with SK-OV-3, > 100 µM (inactive); in the assay with OVCAR-8, > 100 µM (inactive). Further, the GI50 in the assay with HT-29, in the assay on ACHN and with COLO 205 was > 100 µM (inactive) each time.
As to `Cc1cc2c(c(C(=O)O)c1C)-c1cccc(F)c1C2=O`, the GI50 with UO-31 was 27 µM (inactive); in the assay with SK-MEL-28 it was > 100 µM (inactive); in the assay with M14, > 100 µM (inactive); in the assay on NCI-H23, > 100 µM (inactive); in the assay with KM12, > 100 µM (inactive); in the assay on 786-0, > 100 µM (inactive). In addition, the GI50 with OVCAR-3, in the assay with SNB-75, with Malme-3M, in the assay with SK-OV-3, with OVCAR-8 and with HT-29 was > 100 µM (inactive) throughout. The GI50 in the assay on ACHN, in the assay with HOP-62 and with COLO 205 was > 100 µM (inactive) throughout.
On to `c1ccc(NCn2cnc3ccccc32)cc1`, for which the GI50 in the assay with SF-539, in the assay with UO-31, in the assay with SK-MEL-28, with NCI-H23, in the assay with KM12 and in the assay with 786-0 was > 100 µM (inactive) in each case. Also, the GI50 was > 100 µM (inactive) in the assay on OVCAR-3; 56.9 µM (inactive) with SNB-75; > 100 µM (inactive) with Malme-3M; > 100 µM (inactive) in the assay on SK-OV-3; > 100 µM (inactive) in the assay on OVCAR-8; 36.3 µM (inactive) in the assay with HT-29. Further, the GI50 with ACHN was 68.4 µM (inactive); with COLO 205 it was > 100 µM (inactive).
Consider `COC(=O)C1=C(C(=O)OC)C23C=CC=CC24C(C(=O)OC)=C(C(=O)OC)C4C1C3` (centres undefined), for which the GI50 in the assay with SF-539, in the assay with UO-31, in the assay with SK-MEL-28, in the assay with M14, in the assay with NCI-H23 and in the assay on KM12 was > 100 µM (inactive) in each case. The GI50 in the assay on 786-0 was > 100 µM (inactive); in the assay on OVCAR-3, > 100 µM (inactive); in the assay with SNB-75 it was 0.743 µM (active); with Malme-3M, > 100 µM (inactive); in the assay on OVCAR-8, > 100 µM (inactive); with HT-29, > 100 µM (inactive). The GI50 with ACHN, in the assay on HOP-62 and with COLO 205 was > 100 µM (inactive) each time.
In the case of `CCOC(=O)/C(C#N)=C\Sc1ccccc1`, the GI50 in the assay with SF-539 is 15.8 µM (inactive); in the assay with UO-31 it was 9.2 µM (inactive); in the assay on SK-MEL-28, 14.7 µM (inactive); in the assay with M14, 15.9 µM (inactive); with NCI-H23 it was 28.3 µM (inactive); with KM12, 15.9 µM (inactive). Also, the GI50 was 15.3 µM (inactive) in the assay with 786-0; 17.4 µM (inactive) in the assay with OVCAR-3; 18.8 µM (inactive) in the assay on SNB-75; 36.6 µM (inactive) in the assay with SK-OV-3; 13.7 µM (inactive) with OVCAR-8; 26 µM (inactive) with HT-29. Further, the GI50 is 17.1 µM (inactive) in the assay on ACHN, 36.1 µM (inactive) in the assay with HOP-62 and 20.1 µM (inactive) in the assay on COLO 205.
As for `C1CC[N+]23CCCC[N+]2(C1)CCCC3` (centres undefined), the GI50 with UO-31, with SK-MEL-28, in the assay with M14, in the assay with NCI-H23, in the assay with 786-0 and with OVCAR-3 was > 100 µM (inactive) throughout. For the same compound, the GI50 in the assay with SNB-75, in the assay on Malme-3M, with SK-OV-3, with OVCAR-8, with HT-29 and in the assay on ACHN was > 100 µM (inactive) throughout. Further, the GI50 in the assay with HOP-62 and in the assay on COLO 205 was > 100 µM (inactive) in each case.
Take `COc1ccccc1NC(=O)CC(=O)NNCC(=O)Nc1nc(-c2ccccc2)cs1`: the GI50 in the assay with SF-539, with SK-MEL-28, with M14, in the assay on NCI-H23, in the assay with KM12 and in the assay on 786-0 was > 100 µM (inactive) each time. For the same compound, the GI50 in the assay on OVCAR-3, in the assay on SNB-75, in the assay on SK-OV-3, in the assay on OVCAR-8, in the assay on HT-29 and in the assay with HOP-62 was > 100 µM (inactive) throughout. In the assay with COLO 205, the GI50 is > 100 µM (inactive).
For `Cc1cc([N+](=O)[O-])ccc1NC(=O)C(=O)C(C(=O)c1ccccc1-c1ccccc1)C1OC(=O)c2ccccc21` (centres undefined), the GI50 in the assay on SF-539 was 9.02 µM (inactive); in the assay on UO-31 it was 16.6 µM (inactive); in the assay on SK-MEL-28, 14.8 µM (inactive); with M14, 14 µM (inactive); with NCI-H23 it was 25.6 µM (inactive); in the assay on KM12, 15 µM (inactive). The GI50 is 16.1 µM (inactive) in the assay on 786-0; 13.1 µM (inactive) with Malme-3M; 22.7 µM (inactive) with SK-OV-3; 20.8 µM (inactive) in the assay with OVCAR-8; 18.8 µM (inactive) in the assay with HT-29; 31.3 µM (inactive) in the assay with ACHN. Moreover, the GI50 in the assay on COLO 205 is 20.8 µM (inactive).
In the case of `O=C1c2ccc(O)c(O)c2C(=O)c2c(O)ccc(O)c21` [QUINALIZARIN], the GI50 in the assay on SF-539 was 21.4 µM (inactive); in the assay with UO-31, 21.3 µM (inactive); with SK-MEL-28 it was 56 µM (inactive); with M14 it was 21.5 µM (inactive); in the assay on NCI-H23 it was 31.6 µM (inactive); with KM12, 30.9 µM (inactive). Further, the GI50 in the assay on 786-0 is 26.3 µM (inactive); with OVCAR-3, 20.3 µM (inactive); with SNB-75, > 10 µM (inactive); in the assay with SK-OV-3 it was 29.7 µM (inactive); with OVCAR-8, 28.1 µM (inactive); in the assay with HT-29, 35.2 µM (inactive). In addition, the GI50 was 23 µM (inactive) in the assay with ACHN, 26.8 µM (inactive) in the assay with HOP-62 and 22.2 µM (inactive) in the assay on COLO 205.
For the compound `COc1cc(/C=N/N=C(\N)NO)cc(Cl)c1O`, the GI50 was 34.4 µM (inactive) in the assay on SF-539; 23.9 µM (inactive) in the assay with UO-31; 20.7 µM (inactive) in the assay on SK-MEL-28; 33.4 µM (inactive) in the assay with M14; 36.9 µM (inactive) in the assay with NCI-H23; 78 µM (inactive) in the assay with KM12. For the same compound, the GI50 in the assay with 786-0 is 43.7 µM (inactive); in the assay on OVCAR-3 it was 70.3 µM (inactive); with Malme-3M, 55.2 µM (inactive); with SK-OV-3 it was 55.8 µM (inactive); in the assay on OVCAR-8, 65.6 µM (inactive); in the assay on HT-29 it was > 100 µM (inactive). Besides, the GI50 with ACHN was 34.4 µM (inactive); in the assay with HOP-62, 35.7 µM (inactive); in the assay with COLO 205, > 100 µM (inactive).
With `N#Cc1cccc(NC(=O)c2ccc(C(=O)O)c(C(=O)c3ccc(C(=O)O)c(C(=O)Nc4cccc(C#N)c4)c3)c2)c1`, the GI50 with SF-539, in the assay on UO-31, with M14, in the assay with NCI-H23, with KM12 and in the assay on 786-0 was > 100 µM (inactive) throughout. The GI50 with OVCAR-3, in the assay on SNB-75, with Malme-3M, with SK-OV-3, in the assay on OVCAR-8 and in the assay with HT-29 was > 100 µM (inactive) in each case. Also, the GI50 with HOP-62 and in the assay on COLO 205 was > 100 µM (inactive) in each case.
Take `COC(=O)C(=O)C(C(=O)C(=O)Nc1ccc(OC)cc1[N+](=O)[O-])c1nc2ccc([N+](=O)[O-])cc2nc1O` (centres undefined): the GI50 with UO-31, in the assay on M14, in the assay on NCI-H23, in the assay with KM12, in the assay with 786-0 and in the assay with OVCAR-3 was > 100 µM (inactive) throughout. For the same compound, the GI50 was 26.5 µM (inactive) in the assay with SNB-75; > 100 µM (inactive) in the assay on Malme-3M; > 100 µM (inactive) in the assay with SK-OV-3; > 100 µM (inactive) with OVCAR-8; > 100 µM (inactive) with HT-29; > 100 µM (inactive) in the assay with ACHN. Also, the GI50 with HOP-62 and in the assay with COLO 205 was > 100 µM (inactive) each time.
With `Cc1nc2ccccc2c(=O)n1/N=C(\N=N\c1ccc(Cl)cc1)c1cccc(-c2ccco2)c1`, the GI50 in the assay on SF-539 was 28.6 µM (inactive); with UO-31 it was 14.1 µM (inactive); in the assay with SK-MEL-28 it was 16.8 µM (inactive); with M14 it was 34.1 µM (inactive); in the assay on NCI-H23, 21.6 µM (inactive); in the assay on 786-0, 39.6 µM (inactive). The GI50 is 30.3 µM (inactive) in the assay on SK-OV-3; 33.1 µM (inactive) with OVCAR-8; 34.3 µM (inactive) in the assay on HT-29; 30.5 µM (inactive) with ACHN; 22.5 µM (inactive) in the assay with HOP-62; 31.8 µM (inactive) in the assay with COLO 205.
